In patent US20160106723A1, “METHODS TO SENSE AND TREAT SUBCLINICAL SKIN DAMAGE” (priority 2014, published 2016):

Experiments:
[1] = tested on: subclinical skin damage in unblemished skin; experiment: Topical treatment of unblemished skin of participants, observed skin reaction (photographs); type: in vivo, human; conditions: participant
Excerpt: The response of sun or UV damaged cells to Imiquimod in these non-suspicious areas are indicative of altered cells. Clearly subclinical skin damage or AK may exist in the skin but may not be clinically evident in their early development as appearing in FIGS. 1A, 2A, 3A, 4A, 5A, 6A, and 7A.
The detailed method of treatment of subclinical skin damage and of inducing an immune cell response in unblemished skin involves topical application of formulation essentially comprising Imiquimod in an effective amount during a cycle of therapy that is in the range of two to four weeks; and observing the skin for the response; wherein the composition is administered once or twice daily during the cycle of therapy, which is repeated at least once on a substantially annual basis.

normal human skin = conditions: cited from earlier work

SMILES: CC(C)Cn1cnc2c(N)nc3ccccc3c21 [Imiquimod]
- skin reaction after treatment ([1]; FIG. 1B, chest region, 11 days of treatment, strength about 3.75%): severe erythema
- skin reaction after treatment ([1]; FIG. 2B, chest region, fourteen days of treatment, strength about 5.00%): moderate erythema
- skin reaction after treatment ([1]; FIG. 3B, chest region, fourteen days of treatment, strength about 3.75%): moderate erythema
- skin reaction after treatment ([1]; FIG. 5B, forehead region, fifteen days of treatment, strength about 3.75%): moderate reaction
- skin reaction after treatment ([1]; FIG. 6B, scalp region, ten days of treatment, strength about 2.5%): moderate reaction
- skin reaction after treatment ([1]; FIG. 7B, cheek region, fourteen days of treatment, strength about 2.5%): moderate reaction
- skin reaction after treatment ([1]; FIG. 8A, cheek region, fourteen days of treatment, strength about 2.5%): moderate reaction
- skin reaction after treatment ([1]; FIG. 8B and 8C, forehead region, fourteen days of treatment, strength about 2.5%): moderate reaction
- skin reaction after treatment ([1]; FIGS. 4B and 4C, cheek region, twelve days of treatment, strength about 2.5%): mild reaction
- effect on IL-10 production (normal human skin): reduced IL-10 production
- effect on resident T cells (normal human skin): induced activation of resident T cells
